Source: patent publication US8895733B2 (Novartis AG, priority 2010, dated 2014)

target: T1, Nav 1.7 (Homo sapiens, UniProt Q15858); test: Whole-cell voltage clamp electrophysiology, automated patch clamp (marker c in Table of Examples); type: cell-based; conditions: marker c = Automated patch clamp data; read-out: Nav 1.7 activity
T1 construct: expressed in transfected cells
Method in brief: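 Human NaV1.7 currents were recorded by whole-cell automated patch clamp, on IonWorks Quattro or another automated platform, typically in perforated-patch configuration. The stimulus protocol was designed to probe block mainly of the inactivated state, with a typical sweep stepping from about −65 mV holding to −10 mV, then −100 mV.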

T1 sequence (Q15858 whole entry): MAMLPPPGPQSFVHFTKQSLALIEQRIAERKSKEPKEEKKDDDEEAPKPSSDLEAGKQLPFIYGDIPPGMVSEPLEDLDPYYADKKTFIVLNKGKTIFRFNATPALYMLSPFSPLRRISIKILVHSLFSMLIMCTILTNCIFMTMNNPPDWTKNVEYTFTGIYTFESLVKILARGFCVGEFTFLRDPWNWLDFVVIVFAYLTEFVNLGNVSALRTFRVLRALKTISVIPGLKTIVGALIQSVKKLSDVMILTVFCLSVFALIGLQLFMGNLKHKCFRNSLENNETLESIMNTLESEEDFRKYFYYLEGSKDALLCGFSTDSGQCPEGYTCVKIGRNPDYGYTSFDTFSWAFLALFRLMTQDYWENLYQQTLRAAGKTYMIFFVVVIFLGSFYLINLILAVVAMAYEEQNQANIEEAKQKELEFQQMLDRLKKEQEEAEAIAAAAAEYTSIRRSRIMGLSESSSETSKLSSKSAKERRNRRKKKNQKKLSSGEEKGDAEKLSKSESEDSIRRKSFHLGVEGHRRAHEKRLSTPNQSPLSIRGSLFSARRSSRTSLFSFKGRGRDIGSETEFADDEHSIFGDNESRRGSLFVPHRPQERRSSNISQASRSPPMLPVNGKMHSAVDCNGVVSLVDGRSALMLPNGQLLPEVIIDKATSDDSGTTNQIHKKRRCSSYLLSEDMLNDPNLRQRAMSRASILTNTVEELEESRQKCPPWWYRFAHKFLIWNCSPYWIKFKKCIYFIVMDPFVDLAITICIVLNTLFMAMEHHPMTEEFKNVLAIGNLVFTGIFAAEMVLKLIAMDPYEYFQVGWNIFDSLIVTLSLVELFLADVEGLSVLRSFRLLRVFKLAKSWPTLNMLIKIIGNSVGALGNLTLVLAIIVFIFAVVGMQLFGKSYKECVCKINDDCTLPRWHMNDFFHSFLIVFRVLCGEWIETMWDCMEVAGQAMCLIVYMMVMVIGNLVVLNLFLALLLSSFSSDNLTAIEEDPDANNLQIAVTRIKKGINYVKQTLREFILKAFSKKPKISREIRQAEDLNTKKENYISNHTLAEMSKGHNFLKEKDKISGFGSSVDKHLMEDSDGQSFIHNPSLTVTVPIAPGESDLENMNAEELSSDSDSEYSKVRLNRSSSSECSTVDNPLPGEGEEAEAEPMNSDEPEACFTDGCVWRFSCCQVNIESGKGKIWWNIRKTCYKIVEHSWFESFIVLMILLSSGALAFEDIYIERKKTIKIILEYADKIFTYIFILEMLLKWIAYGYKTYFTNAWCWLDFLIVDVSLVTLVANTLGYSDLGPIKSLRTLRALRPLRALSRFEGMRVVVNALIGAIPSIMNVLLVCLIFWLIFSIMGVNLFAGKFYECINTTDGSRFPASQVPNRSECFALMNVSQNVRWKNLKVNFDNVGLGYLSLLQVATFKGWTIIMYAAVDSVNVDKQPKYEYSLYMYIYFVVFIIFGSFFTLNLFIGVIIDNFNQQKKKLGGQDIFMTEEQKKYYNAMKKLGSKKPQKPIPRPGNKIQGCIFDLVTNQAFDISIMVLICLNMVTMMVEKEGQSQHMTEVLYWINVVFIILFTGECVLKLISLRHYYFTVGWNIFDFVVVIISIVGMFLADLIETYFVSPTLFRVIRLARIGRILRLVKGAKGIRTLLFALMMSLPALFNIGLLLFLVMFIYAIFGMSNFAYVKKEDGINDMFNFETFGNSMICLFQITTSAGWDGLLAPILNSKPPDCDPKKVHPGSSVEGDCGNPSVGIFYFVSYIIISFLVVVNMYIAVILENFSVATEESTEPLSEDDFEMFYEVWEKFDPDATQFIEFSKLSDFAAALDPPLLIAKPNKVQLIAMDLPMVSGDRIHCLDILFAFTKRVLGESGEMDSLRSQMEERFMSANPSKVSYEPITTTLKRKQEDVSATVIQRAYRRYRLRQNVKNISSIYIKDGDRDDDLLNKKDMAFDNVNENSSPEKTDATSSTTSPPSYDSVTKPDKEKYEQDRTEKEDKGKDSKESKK

| Structure (SMILES) | IC50 [nM] |
| --- | --- |
| CN(c1ccccc1)c1nc(N)nc(-c2noc(-c3ccc(NCC4CC4)nc3)n2)n1 [Example 333, 6-(5-{6-[(cyclopropylmethyl)amino]pyridin-3-yl}-1,2,4-oxadiazol-3-yl)-2-N-methyl-2-N-phenyl-1,3,5-triazine-2,4-diamine] | 126 |
| CN(c1ccccc1)c1nc(N)nc(-c2noc(-c3ccc(=O)[nH]c3)n2)n1 [Example 334, 5-(3-{4-amino-6-[methyl(phenyl)amino]-1,3,5-triazin-2-yl}-1,2,4-oxadiazol-5-yl)-1,2-dihydropyridin-2-one] | 8450 |
| CN(c1ccccc1)c1nc(N)nc(-c2noc(N3CCC(Oc4ccccc4)CC3)n2)n1 [Example 336, 2-N-methyl-6-[5-(4-phenoxypiperidin-1-yl)-1,2,4-oxadiazol-3-yl]-2-N-phenyl-1,3,5-triazine-2,4-diamine] | 255 |
| CN(c1ccccc1)c1nc(N)nc(-c2noc(N[C@H]3CC[C@H](OCC(F)(F)F)CC3)n2)n1 [Example 337] | 7800 |
| CN(c1ccccc1)c1nc(N)nc(-c2noc(N3CCC(OCc4ccccc4)CC3)n2)n1 [Example 338, 6-{5-[4-(benzyloxy)piperidin-1-yl]-1,2,4-oxadiazol-3-yl}-2-N-methyl-2-N-phenyl-1,3,5-triazine-2,4-diamine] | 597 |
| CN(c1ccccc1)c1nc(N)nc(-c2noc(-c3ccc4c(c3)CCO4)n2)n1 [Example 339, 6-[5-(2,3-dihydro-1-benzofuran-5-yl)-1,2,4-oxadiazol-3-yl]-2-N-methyl-2-N-phenyl-1,3,5-triazine-2,4-diamine] | 107 |
| CN(c1ccccc1)c1nc(N)nc(-c2noc(-c3ccc(OCC(F)(F)F)cn3)n2)n1 [Example 340, 2-N-methyl-2-N-phenyl-6-{5-[5-(2,2,2-trifluoroethoxy)pyridin-2-yl]-1,2,4-oxadiazol-3-yl}-1,3,5-triazine-2,4-diamine] | 818 |
| Cc1cnc(-c2nc(-c3nc(N)nc(N(C)c4ccccc4)n3)no2)s1 [Example 342] | 2030 |
| Nc1nc(Nc2cc(F)ccc2F)nc(-c2noc(-c3ccc(OCC(F)(F)F)nc3)n2)n1 [Example 343, 2-N-(2,5-difluorophenyl)-6-{5-[6-(2,2,2-trifluoroethoxy)pyridin-3-yl]-1,2,4-oxadiazol-3-yl}-1,3,5-triazine-2,4-diamine] | 195 |
| CN1CCN(C(=O)c2nc(-c3nc(N)nc(N(C)c4ccccc4)n3)no2)CC1 [Example 344, 2-N-methyl-6-{5-[(4-methylpiperazin-1-yl)carbonyl]-1,2,4-oxadiazol-3-yl}-2-N-phenyl-1,3,5-triazine-2,4-diamine] | 5760 |
| CN(c1ccccc1)c1nc(N)nc(-c2noc(-c3nc(C(F)(F)F)cs3)n2)n1 [Example 345, 2-N-methyl-2-N-phenyl-6-{5-[4-(trifluoromethyl)-1,3-thiazol-2-yl]-1,2,4-oxadiazol-3-yl}-1,3,5-triazine-2,4-diamine] | 1970 |
| CN(c1ccccc1)c1nc(N)nc(-c2noc(N3CCN(C(=O)C(F)(F)F)CC3)n2)n1 [Example 347, 1-[4-(3-{4-amino-6-[methyl(phenyl)amino]-1,3,5-triazin-2-yl}-1,2,4-oxadiazol-5-yl)piperazin-1-yl]-2,2,2-trifluoroethan-1-one] | 5810 |
| CN(c1ccccc1)c1nc(N)nc(-c2noc(-c3ncccc3C(F)(F)F)n2)n1 [Example 348, 2-N-methyl-2-N-phenyl-6-{5-[3-(trifluoromethyl)pyridin-2-yl]-1,2,4-oxadiazol-3-yl}-1,3,5-triazine-2,4-diamine] | 328 |
| CN(c1ccccc1)c1nc(N)nc(-c2noc(-c3ccc(COCC(F)(F)F)cn3)n2)n1 [Example 349, 2-N-methyl-2-N-phenyl-6-(5-{5-[(2,2,2-trifluoroethoxy)methyl]pyridin-2-yl}-1,2,4-oxadiazol-3-yl)-1,3,5-triazine-2,4-diamine] | 2.5 |
| Nc1nc(Nc2ccccc2)nc(-c2noc(-c3ccc(COCC(F)(F)F)cn3)n2)n1 [Example 350, 2-N-phenyl-6-(5-{5-[(2,2,2-trifluoroethoxy)methyl]pyridin-2-yl}-1,2,4-oxadiazol-3-yl)-1,3,5-triazine-2,4-diamine] | 4 |
| CN(c1ccccc1)c1nc(N)nc(-c2noc(-c3ccc(COCC(F)(F)F)cc3)n2)n1 [Example 351, 2-N-methyl-2-N-phenyl-6-(5-{4-[(2,2,2-trifluoroethoxy)methyl]phenyl}-1,2,4-oxadiazol-3-yl)-1,3,5-triazine-2,4-diamine] | 11 |
| CN(c1ccccc1)c1nc(N)nc(-c2noc(N3CCC(c4ccccc4)CC3)n2)n1 [Example 352, 2-N-methyl-2-N-phenyl-6-[5-(4-phenylpiperidin-1-yl)-1,2,4-oxadiazol-3-yl]-1,3,5-triazine-2,4-diamine] | 1280 |

| Structure (SMILES) | IC50 [nM] |
| --- | --- |
| CN(c1ccccc1)c1nc(N)nc(-c2noc([C@H]3CCCN3C(=O)OC(C)(C)C)n2)n1 [Example 353, tert-butyl (2R)-2-(3-{4-amino-6-[methyl(phenyl)amino]-1,3,5-triazin-2-yl}-1,2,4-oxadiazol-5-yl)pyrrolidine-1-carboxylate] | 893 |
| CN(c1ccccc1)c1nc(N)nc(-c2noc(N3CCC(Oc4ccccn4)CC3)n2)n1 [Example 354, 2-N-methyl-2-N-phenyl-6-{5-[4-(pyridin-2-yloxy)piperidin-1-yl]-1,2,4-oxadiazol-3-yl}-1,3,5-triazine-2,4-diamine] | 1200 |
| CN(c1ccccc1)c1nc(N)nc(-c2noc(N3CCC(O)(c4ccccc4)CC3)n2)n1 [Example 355, 1-(3-{4-amino-6-[methyl(phenyl)amino]-1,3,5-triazin-2-yl}-1,2,4-oxadiazol-5-yl)-4-phenylpiperidin-4-ol] | 2620 |
| CN(c1ccccc1)c1nc(N)nc(-c2noc(-c3ccc(OC4CCCCC4)nc3)n2)n1 [Example 356, 6-{5-[6-(cyclohexyloxy)pyridin-3-yl]-1,2,4-oxadiazol-3-yl}-2-N-methyl-2-N-phenyl-1,3,5-triazine-2,4-diamine] | 20 |
| CC(Oc1ccc(-c2nc(-c3nc(N)nc(N(C)c4ccccc4)n3)no2)cn1)C(F)(F)F (stereo not shown) [Example 357, 2-N-methyl-2-N-phenyl-6-(5-{6-[(1,1,1-trifluoropropan-2-yl)oxy]pyridin-3-yl}-1,2,4-oxadiazol-3-yl)-1,3,5-triazine-2,4-diamine] | 55 |
| CC(OCC(F)(F)F)c1ccc(-c2nc(-c3nc(N)nc(N(C)c4ccccc4)n3)no2)nc1 (stereo not shown) [Example 358, 2-N-Methyl-2-N-phenyl-6-(5-{5-[1-(2,2,2-trifluoroethoxy)ethyl]pyridin-2-yl}-1,2,4-oxadiazol-3-yl)-1,3,5-triazine-2,4-diamine] | 56 |
| CN(c1ccccc1)c1nc(N)nc(-c2noc(-c3ccc(OCCC(F)(F)F)nc3)n2)n1 [Example 359, 2-N-methyl-2-N-phenyl-6-{5-[6-(3,3,3-trifluoropropoxy)pyridin-3-yl]-1,2,4-oxadiazol-3-yl}-1,3,5-triazine-2,4-diamine] | 24 |
| COC1(c2ccccc2)CCN(c2nc(-c3nc(N)nc(N(C)c4ccccc4)n3)no2)CC1 [Example 360, 6-[5-(4-methoxy-4-phenylpiperidin-1-yl)-1,2,4-oxadiazol-3-yl]-2-N-methyl-2-N-phenyl-1,3,5-triazine-2,4-diamine] | 2140 |
| CN(c1ccccc1)c1nc(N)nc(-c2noc(-c3ccc(OC4CCOCC4)nc3)n2)n1 [Example 361, 2-N-methyl-6-{5-[6-(oxan-4-yloxy)pyridin-3-yl]-1,2,4-oxadiazol-3-yl}-2-N-phenyl-1,3,5-triazine-2,4-diamine] | 273 |
| CN(c1ccccc1)c1nc(N)nc(-c2noc(N3CCC(SCC(F)(F)F)CC3)n2)n1 [Example 362, 2-N-methyl-2-N-phenyl-6-(5-{4-[(2,2,2-trifluoroethyl)sulfanyl]piperidin-1yl}-1,2,4-oxadiazol-3-yl)-1,3,5-triazine-2,4-diamine] | 711 |
| Nc1nc(Nc2ccccc2)nc(-c2noc(-c3ccc(OCCC(F)(F)F)nc3)n2)n1 [Example 363, 2-N-phenyl-6-{5-[6-(3,3,3-trifluoropropoxy)pyridin-3-yl]-1,2,4-oxadiazol-3-yl}-1,3,5-triazine-2,4-diamine] | 7 |
| CN1CCC(Oc2ccc(-c3nc(-c4nc(N)nc(N(C)c5ccccc5)n4)no3)cn2)C1 (stereo not shown) [Example 364, 2-N-methyl-6-(5-{6-[(1-methylpyrrolidin-3-yl)oxy]pyridin-3-yl}-1,2,4-oxadiazol-3-yl)-2-N-phenyl-1,3,5-triazine-2,4-diamine] | 1620 |
| CN(c1ccccc1)c1nc(N)nc(-c2noc(N3CCC(S(=O)(=O)CC(F)(F)F)CC3)n2)n1 [Example 365, 2-N-methyl-2-N-phenyl-6-(5-{4-[(2,2,2-trifluoroethane)sulfonyl]piperidin-1-yl}-1,2,4-oxadiazol-3-yl)-1,3,5-triazine-2,4-diamine] | > 8460 |
| CN(c1ccccc1)c1nc(N)nc(-c2noc(-c3ccc(OCCOCC(F)(F)F)nc3)n2)n1 [Example 366, 2-N-Methyl-2-N-phenyl-6-(5-{6-[2-(2,2,2-trifluoroethoxy)ethoxy]pyridin-3-yl}-1,2,4-oxadiazol-3-yl)-1,3,5-triazine-2,4-diamine] | 52.5 |
| CC(C)SC1CCN(c2nc(-c3nc(N)nc(N(C)c4ccccc4)n3)no2)CC1 [Example 367, 2-N-methyl-2-N-phenyl-6-{5-[4-(propan-2-ylsulfanyl)piperidin-1-yl]-1,2,4-oxadiazol-3-yl}-1,3,5-triazine-2,4-diamine] | 2060 |
| CC(C)[S+]([O-])C1CCN(c2nc(-c3nc(N)nc(N(C)c4ccccc4)n3)no2)CC1 (stereo not shown) [Example 368, 2-N-methyl-2-N-phenyl-6-{5-[4-(propane-2-sulfinyl)piperidin-1-yl]-1,2,4-oxadiazol-3-yl}-1,3,5-triazine-2,4-diamine] | 6700 |
| CN(c1ccccc1)c1nc(N)nc(-c2noc(-c3ncccc3C(=O)NCC3CC3)n2)n1 [Example 369, 2-(3-{4-amino-6-[methyl(phenyl)amino]-1,3,5-triazin-2-yl}-1,2,4-oxadiazol-5-yl)-N-(cyclopropylmethyl)pyridine-3-carboxamide] | 1320 |
